Results published in patent publication US8642633B2, “Di-substituted amides for enhancing glutamatergic synaptic responses” (Cortex Pharmaceutical, Inc., priority 2007, dated 2014).

What was measured:
[1] = system: AMPA receptor; test: In vivo electrophysiology: field EPSP amplitude in the dentate gyrus of anesthetized animals; design: species or system rat; conditions: rat, 10mpk i.p.
Experimental: A. Enhancement of AMPA Receptor Function In Vivo.
Synaptic responses mediated by AMPA receptors are increased according to the method of the invention, using the compounds described herein.
(§1) The electrophysiological effects of the invention compounds were tested in vivo in anesthetized animals according to the following procedures. Animals are maintained under anesthesia by phenobarbital administered using a Hamilton syringe pump. Stimulating and recording electrodes are inserted into the perforant path and dentate gyrus of the hippocampus, respectively. Once electrodes are implanted, a stable baseline of evoked responses are elicited using single monophasic pulses (100 μs pulse duration) delivered at 3/min to the stimulating electrode. Field EPSPs are monitored until a stable baseline is achieved (about 20-30 min), after which a solution of test compound is injected intraperitoneally and evoked field potentials are recorded. Evoked potentials were recorded for approximately 2 h following drug administration or until the amplitude of the field EPSP returns to baseline. In the latter instance, it is common that an iv administration is also carried out with an appropriate dose of the same test compound. Invention compounds were assayed in the in vivo electrophysiology assay described above and data for representative test compounds is shown in column 1 in Table 1.
The electrophysiological effects of invention compounds were tested in vivo in anesthetized animals according to the following procedures.
as §1, with “Animals” for “The electrophysiological effects of the invention compounds were tested in vivo in anesthetized animals according to the following procedures. Animals”, “are” for “were”, “compound.” for “compound. Invention compounds were assayed in the in vivo electrophysiology assay described above and data for representative test compounds is shown in column 1 in Table 1.”

[2] = system: d-amphetamine stimulated locomotion in mice; test: Inhibition of d-amphetamine stimulated locomotion; assay type: in vivo; conditions: Mus musculus, ip, 18 mpk i.p., d-amphetamine 2 mg/kg
Experimental: B. Behavioral Testing: Inhibition of d-Amphetamine Stimulated Locomotion
The ability of the invention compounds to inhibit d-Amphetamine stimulated locomotor activity was assayed according to the following procedure. Male CD1 mice, 25-30 gm body weight, were brought into the experimental room and allowed at least 30 min of acclimation. Each mouse was placed into the testing enclosure with an infrared beam array that automatically monitors the animal's activity. Mice were habituated in the testing enclosure for 20 min, and then returned to their home cage. Mice were dosed intraperitoneally with test compound in appropriate vehicle 5 minutes before d-Amphetamine injection (2 mpk). Ten minutes after d-Amphetamine injection, mice were tested for locomotor activity for a total of […]. The data was computer collected and expressed as “arbitrary movement units.” All data were analyzed by comparing the groups treated with the test compound to the vehicle control group. The data shown is the % inhibition of hyperactivity induced by acute administration of 2 mg/kg d-amphetamine in mice. The compounds tested produced a statistically significant inhibition of d-amphetamine stimulated locomotion.
Male CD1 mice, 25-30 gm body weight, were brought into the experimental room and allowed at least 30 min of acclimation. Each mouse was placed into the testing enclosure with an infrared beam array that automatically monitors the animal's activity. Mice were habituated in the testing enclosure for 20 min, and then returned to their home cage. Mice were dosed intraperitoneally with test compound in appropriate vehicle 5 minutes before d-Amphetamine injection. Ten minutes after d-Amphetamine injection, mice were tested for locomotor activity for a total of 15 minutes. The data was computer collected and expressed as “arbitrary movement units.” All data were analyzed by comparing the groups treated with the test compound to the vehicle control group.

With CN(C(=O)c1ccc2nonc2c1)C1CC=C(F)CC1 (stereo not drawn) [Example 41, N-(4-fluorocyclohex-3-en-1-yl)-N-methyl-[2,1,3]-benzoxadiazole-5-carboxamide] the “In vivo Electrophysiology: % increase in the amplitude of the field EPSP in the dentate gyrus of rat” value [1] was 18%, the melting point was 117 to 118 °C and the inhibition in vivo at 18 mg/kg [2] was 67%.

In the case of CN(C(=O)c1ccc2nonc2c1)C1CCC(F)(F)CC1 [Example 40, N-(4,4-Difluorocyclohexyl)-N-methyl-[2,1,3]-benzoxadiazole-5-carboxamide], the “In vivo Electrophysiology: % increase in the amplitude of the field EPSP in the dentate gyrus of rat” value [1] is reported as 18%, the melting point is reported as 137 to 138 °C and the inhibition in vivo at 18 mg/kg [2] is reported as 84%.
